# Data reported in patent US11192888B2, “Antibacterial compounds” (priority 2017, dated 2021).
# *1 amine or outer side, *2 acyl side, *3 side chain or, on linkers, in order; H or OH if unused. Where a SMILES comes first, the peptide text is derived from it. [ ]: non-standard residue; d: D form. dAla(ψthiazole) = C[C@@H](N[*:1])c1nc(C(=O)[*:2])cs1; Trp(4-Br) = N[C@@H](Cc1c[nH]c2cccc(Br)c12)C(=O)O; Dhb = C/C=C(\N)C(=O)O; Sar = CNCC(=O)O
# How the values were obtained:
# [1] = system: Staphylococcus aureus ATCC 29213
# [2] = system: Clostridium innocuum DSM 1286
# [3] = system: Bifidobacterium breve ATCC 15700
# [4] = system: C. difficile ATCC 43255 (aka VPI 10463; ribotype 087); experiment: Mouse model of C. difficile-associated disease; type: in vivo, C57BL/6 mice
smiles,measurement,setting,value
"C/C=C1\NC(=O)[C@@H](C)NC(=O)CNC(=O)[C@H](Cc2c[nH]c3cccc(Br)c23)NC(=O)[C@H](Cc2c[nH]c3ccccc23)NC(=O)c2csc(n2)[C@@H](C)NC(=O)CN(C)C1=O [Compound 10, Cyclo[D-Ala-Thz-Trp-Trp(4-Br)-Gly-D-Ala-Dhb-Sar]] (cyclo([Dhb][Sar][dAla(ψthiazole)]W[Trp(4-Br)]G[dA]))",MIC,[1],>64 mg/L
same,MIC,[2],>64 mg/L
same,MIC,[3],>64 mg/L
same,survival to the end of the study at day-21 post-infection,[4]; 1 mg/kg,80%
same,Mean survival,[4]; 1 mg/kg oral BD for 5 days,504.00 h
same,survival to the end of the study at day-21 post-infection,[4]; 2.5 mg/kg,70%
same,Mean survival,[4]; 2.5 mg/kg oral BD for 5 days,504.00 h
same,reduction in C. difficile spore burden in the caecum vs vehicle controls,[4]; 5 mg/kg,1.73 Log10 spore/mL
same,reduction in C. difficile spore burden in the colon vs vehicle controls,[4]; 5 mg/kg,1.11 Log10 spore/mL
same,survival to the end of the study at day-21 post-infection,[4]; 5 mg/kg,90%
same,Mean survival,[4]; 5 mg/kg oral BD for 5 days,504.00 h
